For 2 molecules, remaining binding results are on record in paper PMC9856672, “SGC-CAMKK2-1: A Chemical Probe for CAMKK2” (Cells, 2023).

In one assay the target is T1, EPHB1 (Homo sapiens, UniProt P54762).
T1 construct: purchased Eurofins DiscoverX KINOMEscan
In words: KINOMEscan 1 μM, EPHB1. The following applies: 1000 nM; Entrez EPHB1; read-out: Percent Control. It is filed as binding. The source says: (§1) Supplement cells-12-00287-s001.zip/File S2. KinomeScan data for the CAMKK2 probe and negative control.xlsx, sheet "SGC-CAMKK2-1" | column: Percent Control

A further assay deals with T2, ERK8 (Homo sapiens, UniProt Q8TD08).
T2 construct: purchased Eurofins DiscoverX KINOMEscan
T2 sequence (Q8TD08 whole entry): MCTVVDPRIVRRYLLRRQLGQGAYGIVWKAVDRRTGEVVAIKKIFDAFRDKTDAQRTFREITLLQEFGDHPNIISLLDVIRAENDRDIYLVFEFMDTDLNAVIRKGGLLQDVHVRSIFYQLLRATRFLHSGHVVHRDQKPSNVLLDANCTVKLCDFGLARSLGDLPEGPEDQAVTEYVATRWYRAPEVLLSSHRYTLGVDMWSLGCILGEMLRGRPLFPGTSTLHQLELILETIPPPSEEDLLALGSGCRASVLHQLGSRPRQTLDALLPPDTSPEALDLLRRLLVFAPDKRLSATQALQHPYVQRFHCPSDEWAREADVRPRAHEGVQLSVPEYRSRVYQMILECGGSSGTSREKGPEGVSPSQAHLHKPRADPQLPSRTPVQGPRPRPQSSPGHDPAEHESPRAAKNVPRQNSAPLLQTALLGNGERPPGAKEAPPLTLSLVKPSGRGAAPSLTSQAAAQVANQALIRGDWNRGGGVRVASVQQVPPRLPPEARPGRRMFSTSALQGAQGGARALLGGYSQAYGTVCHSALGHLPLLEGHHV
In words: KINOMEscan 1 μM, ERK8. In kind it is binding. The following applies: 1000 nM; Entrez MAPK15; read-out: Percent Control.
Source text: as §1

For the next assay, the target named is T3, STK39 (Homo sapiens, UniProt Q9UEW8).
T3 construct: purchased Eurofins DiscoverX KINOMEscan
In words: KINOMEscan 1 μM, STK39. The following applies: 1000 nM; Entrez STK39; read-out: Percent Control. It is filed as binding.
Source text: as §1

Another assay deals with T4, NEK9 (Homo sapiens, UniProt Q8TD19).
T4 construct: purchased Eurofins DiscoverX KINOMEscan
In words: KINOMEscan 1 μM, NEK9. It is filed as binding. The following applies: 1000 nM; Entrez NEK9; read-out: Percent Control.
Source text: as §1

The next assay addresses T5, MRCKB (Homo sapiens, UniProt Q9Y5S2).
T5 construct: purchased Eurofins DiscoverX KINOMEscan
In words: KINOMEscan 1 μM, MRCKB. It is filed as binding. The conditions noted are these: 1000 nM; Entrez CDC42BPB; read-out: Percent Control.
Source text: as §1

For a further assay, the target named is T6, PIK3CA(M1043I) (Homo sapiens, UniProt P42336, M1043I).
T6 construct: purchased Eurofins DiscoverX KINOMEscan
In words: DiscoverX KINOMEscan binding assay at 1 μM, PIK3CA(M1043I). The conditions noted are these: Compound Concentration 1000 nM, read-out: Percent Control.
Source text: as §1

In assay [1] the target is T7, ABL1(Q252H)-phosphorylated (Homo sapiens, UniProt P00519, Q252H).
T7 construct: purchased Eurofins DiscoverX KINOMEscan
Briefly: KINOMEscan 1 μM, ABL1(Q252H)-phosphorylated. In kind it is binding. The following applies: 1000 nM; Entrez ABL1; read-out: Percent Control.
Source text: as §1

The target of the next assay is T8, DYRK2 (Homo sapiens, UniProt Q92630).
T8 construct: purchased Eurofins DiscoverX KINOMEscan
Briefly: KINOMEscan 1 μM, DYRK2. It is filed as binding. The conditions noted are these: 1000 nM; Entrez DYRK2; read-out: Percent Control.
Source text: as §1

For another assay, the target named is T9, FLT3(D835Y) (Homo sapiens, UniProt P36888, D835Y).
T9 construct: purchased Eurofins DiscoverX KINOMEscan
In words: KINOMEscan 1 μM, FLT3(D835Y). It is filed as binding. The following applies: 1000 nM; Entrez FLT3; read-out: Percent Control.
Source text: as §1

The target of another assay is T10, CTK (Homo sapiens, UniProt P42679).
T10 construct: purchased Eurofins DiscoverX KINOMEscan
Briefly: KINOMEscan 1 μM, CTK. It is filed as binding. The following applies: 1000 nM; Entrez MATK; read-out: Percent Control.
Source text: as §1

The target in another assay is T11, PRKX (Homo sapiens, UniProt P51817).
T11 construct: purchased Eurofins DiscoverX KINOMEscan
T11 sequence (P51817 whole entry): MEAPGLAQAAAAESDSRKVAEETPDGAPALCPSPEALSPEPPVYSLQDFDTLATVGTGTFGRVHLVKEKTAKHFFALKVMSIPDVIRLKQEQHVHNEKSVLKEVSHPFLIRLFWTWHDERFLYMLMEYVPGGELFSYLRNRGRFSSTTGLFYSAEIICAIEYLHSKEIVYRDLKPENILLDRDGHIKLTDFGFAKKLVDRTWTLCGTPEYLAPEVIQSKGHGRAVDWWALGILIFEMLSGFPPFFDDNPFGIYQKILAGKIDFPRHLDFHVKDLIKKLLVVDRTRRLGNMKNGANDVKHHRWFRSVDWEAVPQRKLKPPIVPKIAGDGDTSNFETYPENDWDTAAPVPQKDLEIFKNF
In words: KINOMEscan 1 μM, PRKX. It is filed as binding. The following applies: 1000 nM; Entrez PRKX; read-out: Percent Control.
Source text: as §1

The target of another assay is T12, PHKG1 (Homo sapiens, UniProt Q16816).
T12 construct: purchased Eurofins DiscoverX KINOMEscan
T12 sequence (Q16816 whole entry): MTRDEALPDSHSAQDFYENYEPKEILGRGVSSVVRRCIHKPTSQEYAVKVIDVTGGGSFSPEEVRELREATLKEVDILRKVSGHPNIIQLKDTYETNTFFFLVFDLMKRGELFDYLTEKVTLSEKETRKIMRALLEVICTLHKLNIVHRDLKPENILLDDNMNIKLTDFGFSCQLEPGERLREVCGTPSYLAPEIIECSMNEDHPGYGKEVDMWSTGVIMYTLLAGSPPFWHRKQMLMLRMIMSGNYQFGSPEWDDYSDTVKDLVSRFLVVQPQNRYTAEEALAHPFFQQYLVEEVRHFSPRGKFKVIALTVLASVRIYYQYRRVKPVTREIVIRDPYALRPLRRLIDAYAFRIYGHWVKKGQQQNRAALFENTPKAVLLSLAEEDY
In words: KINOMEscan 1 μM, PHKG1. In kind it is binding. The conditions noted are these: 1000 nM; Entrez PHKG1; read-out: Percent Control.
Source text: as §1

The target in another assay is T13, ROS1 (Homo sapiens, UniProt P08922).
T13 construct: purchased Eurofins DiscoverX KINOMEscan
In words: KINOMEscan 1 μM, ROS1. It is filed as binding. The following applies: 1000 nM; Entrez ROS1; read-out: Percent Control.
Source text: as §1

A further assay concerns the target T14, SNRK (Homo sapiens, UniProt Q9NRH2).
T14 construct: purchased Eurofins DiscoverX KINOMEscan
In words: KINOMEscan 1 μM, SNRK. The following applies: 1000 nM; Entrez SNRK; read-out: Percent Control. In kind it is binding.
Source text: as §1

Another assay has as its target T15, CAMK2B (Homo sapiens, UniProt Q13554).
T15 construct: purchased Eurofins DiscoverX KINOMEscan
In words: KINOMEscan 1 μM, CAMK2B. In kind it is binding. The following applies: 1000 nM; Entrez CAMK2B; read-out: Percent Control.
Source text: as §1

The target in assay [2] is T16, ABL1(F317I)-nonphosphorylated (Homo sapiens, UniProt P00519, F317I).
T16 construct: purchased Eurofins DiscoverX KINOMEscan
Briefly: KINOMEscan 1 μM, ABL1(F317I)-nonphosphorylated. It is filed as binding. The following applies: 1000 nM; Entrez ABL1; read-out: Percent Control.
Source text: as §1

The next assay has as its target T17, EGFR(L858R) (Homo sapiens, UniProt P00533, L858R).
T17 construct: purchased Eurofins DiscoverX KINOMEscan
In words: KINOMEscan 1 μM, EGFR(L858R). It is filed as binding. The conditions noted are these: 1000 nM; Entrez EGFR; read-out: Percent Control.
Source text: as §1

Another assay deals with T18, RIPK1 (Homo sapiens, UniProt Q13546).
T18 construct: purchased Eurofins DiscoverX KINOMEscan
In words: KINOMEscan 1 μM, RIPK1. The following applies: 1000 nM; Entrez RIPK1; read-out: Percent Control. In kind it is binding.
Source text: as §1

The next assay addresses T19, PIK3C2B (Homo sapiens, UniProt O00750).
T19 construct: purchased Eurofins DiscoverX KINOMEscan
In words: KINOMEscan at 1 μM, PIK3C2B. It is filed as binding. The conditions noted are these: 1000 nM, read-out: Percent Control. The source says: (§2) Supplement cells-12-00287-s001.zip/File S2. KinomeScan data for the CAMKK2 probe and negative control.xlsx, sheet "SGC-CAMKK2-1N" | column: Percent Control

Another assay addresses T20, LZK (Homo sapiens, UniProt O43283).
T20 construct: purchased Eurofins DiscoverX KINOMEscan
Briefly: KINOMEscan at 1 μM, LZK. It is filed as binding. The following applies: 1000 nM, read-out: Percent Control.
Source text: as §2

The target of the next assay is T21, MAP3K2 (Homo sapiens, UniProt Q9Y2U5).
T21 construct: purchased Eurofins DiscoverX KINOMEscan
In words: KINOMEscan at 1 μM, MAP3K2. It is filed as binding. The following applies: 1000 nM, read-out: Percent Control.
Source text: as §2

A further assay concerns the target T22, MAP4K2 (Homo sapiens, UniProt Q12851).
T22 construct: purchased Eurofins DiscoverX KINOMEscan
In words: KINOMEscan at 1 μM, MAP4K2. It is filed as binding. The following applies: 1000 nM, read-out: Percent Control.
Source text: as §2

A further assay deals with T23, MARK4 (Homo sapiens, UniProt Q96L34).
T23 construct: purchased Eurofins DiscoverX KINOMEscan
In words: KINOMEscan binding assay at 1 μM, MARK4. The following applies: Compound Concentration 1000 nM; read-out: Percent Control.
Source text: as §2

The target of another assay is T24, CLK4 (Homo sapiens, UniProt Q9HAZ1).
T24 construct: purchased Eurofins DiscoverX KINOMEscan
T24 sequence (Q9HAZ1 whole entry): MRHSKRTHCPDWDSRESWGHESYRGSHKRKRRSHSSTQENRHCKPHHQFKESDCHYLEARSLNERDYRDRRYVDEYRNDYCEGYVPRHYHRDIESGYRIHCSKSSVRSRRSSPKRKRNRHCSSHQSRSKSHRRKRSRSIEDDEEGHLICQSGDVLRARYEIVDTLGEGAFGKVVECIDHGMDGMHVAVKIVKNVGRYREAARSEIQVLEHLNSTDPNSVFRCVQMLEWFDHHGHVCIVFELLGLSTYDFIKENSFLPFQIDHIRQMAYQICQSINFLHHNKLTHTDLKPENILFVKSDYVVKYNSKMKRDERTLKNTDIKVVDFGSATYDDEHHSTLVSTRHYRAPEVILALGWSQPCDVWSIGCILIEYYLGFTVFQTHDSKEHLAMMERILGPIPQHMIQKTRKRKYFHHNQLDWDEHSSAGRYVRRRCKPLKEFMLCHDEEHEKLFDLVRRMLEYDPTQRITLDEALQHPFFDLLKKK
In words: KINOMEscan at 1 μM, CLK4. In kind it is binding. The following applies: 1000 nM, read-out: Percent Control.
Source text: as §2

A further assay has as its target T25, YES (Homo sapiens, UniProt P07947).
T25 construct: purchased Eurofins DiscoverX KINOMEscan
Briefly: KINOMEscan at 1 μM, YES. In kind it is binding. The conditions noted are these: 1000 nM, read-out: Percent Control.
Source text: as §2

The next assay concerns the target T26, CAMK1B (Homo sapiens, UniProt Q6P2M8).
T26 construct: purchased Eurofins DiscoverX KINOMEscan
In words: KINOMEscan at 1 μM, CAMK1B. It is filed as binding. The following applies: 1000 nM, read-out: Percent Control.
Source text: as §2

The next assay deals with T27, PIM1 (Homo sapiens, UniProt P11309).
T27 construct: purchased Eurofins DiscoverX KINOMEscan
In words: KINOMEscan at 1 μM, PIM1. It is filed as binding. The following applies: 1000 nM, read-out: Percent Control.
Source text: as §2

Assay [3] addresses T28, RSK1(Kin.Dom.1-N-terminal) (Homo sapiens, UniProt Q15418).
T28 construct: RSK1(Kin.Dom.1-N-terminal); purchased Eurofins DiscoverX KINOMEscan
Briefly: KINOMEscan at 1 μM, RSK1(Kin.Dom.1-N-terminal). It is filed as binding. The conditions noted are these: 1000 nM, read-out: Percent Control.
Source text: as §2

Assay [4] addresses T29, RPS6KA4(Kin.Dom.2-C-terminal) (Homo sapiens, UniProt O75676).
T29 construct: RPS6KA4(Kin.Dom.2-C-terminal); purchased Eurofins DiscoverX KINOMEscan
In words: KINOMEscan at 1 μM, RPS6KA4(Kin.Dom.2-C-terminal). The following applies: 1000 nM, read-out: Percent Control. It is filed as binding.
Source text: as §2

The target in another assay is T30, EGFR(G719C) (Homo sapiens, UniProt P00533, G719C).
T30 construct: purchased Eurofins DiscoverX KINOMEscan
T30 sequence (P00533 25-1210 G719C): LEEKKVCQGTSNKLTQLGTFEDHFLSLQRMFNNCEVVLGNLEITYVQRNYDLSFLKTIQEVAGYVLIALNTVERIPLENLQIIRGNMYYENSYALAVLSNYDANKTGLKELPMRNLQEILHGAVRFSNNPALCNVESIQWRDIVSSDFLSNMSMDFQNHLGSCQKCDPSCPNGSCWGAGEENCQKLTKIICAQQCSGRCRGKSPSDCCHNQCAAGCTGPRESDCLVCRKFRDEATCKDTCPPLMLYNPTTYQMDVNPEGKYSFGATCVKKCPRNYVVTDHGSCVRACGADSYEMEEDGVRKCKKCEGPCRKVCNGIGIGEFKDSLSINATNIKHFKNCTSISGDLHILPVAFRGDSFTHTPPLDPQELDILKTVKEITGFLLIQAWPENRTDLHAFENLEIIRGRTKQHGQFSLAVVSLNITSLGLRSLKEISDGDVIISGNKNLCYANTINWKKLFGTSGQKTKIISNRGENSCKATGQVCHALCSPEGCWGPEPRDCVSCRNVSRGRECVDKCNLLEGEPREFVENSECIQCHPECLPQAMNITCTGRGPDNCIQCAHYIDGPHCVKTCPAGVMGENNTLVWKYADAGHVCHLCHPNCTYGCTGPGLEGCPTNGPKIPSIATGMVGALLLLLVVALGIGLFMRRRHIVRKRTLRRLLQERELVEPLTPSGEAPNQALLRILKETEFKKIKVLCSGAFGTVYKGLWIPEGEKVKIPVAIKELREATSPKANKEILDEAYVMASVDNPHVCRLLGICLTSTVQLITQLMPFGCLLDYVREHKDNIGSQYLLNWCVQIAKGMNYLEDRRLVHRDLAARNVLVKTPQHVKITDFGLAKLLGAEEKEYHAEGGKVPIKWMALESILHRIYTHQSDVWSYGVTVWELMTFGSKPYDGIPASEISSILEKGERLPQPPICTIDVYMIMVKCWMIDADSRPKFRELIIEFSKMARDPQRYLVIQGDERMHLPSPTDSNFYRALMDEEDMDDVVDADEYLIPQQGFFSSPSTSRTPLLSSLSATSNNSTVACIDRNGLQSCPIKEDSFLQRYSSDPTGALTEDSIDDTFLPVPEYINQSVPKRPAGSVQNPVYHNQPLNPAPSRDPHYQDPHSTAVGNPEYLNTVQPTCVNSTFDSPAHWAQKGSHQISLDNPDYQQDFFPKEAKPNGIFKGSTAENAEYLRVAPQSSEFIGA
Briefly: KINOMEscan binding assay at 1 μM, EGFR(G719C). The conditions noted are these: Compound Concentration 1000 nM; read-out: Percent Control.
Source text: as §2

The target in the next assay is T31, ASK2 (Homo sapiens, UniProt O95382).
T31 construct: purchased Eurofins DiscoverX KINOMEscan
In words: KINOMEscan at 1 μM, ASK2. In kind it is binding. The conditions noted are these: 1000 nM, read-out: Percent Control.
Source text: as §2

Another assay deals with T32, DMPK2 (Homo sapiens, UniProt Q6DT37).
T32 construct: purchased Eurofins DiscoverX KINOMEscan
In words: KINOMEscan at 1 μM, DMPK2. In kind it is binding. The following applies: 1000 nM, read-out: Percent Control.
Source text: as §2

T26 sequence (Q6P2M8 whole entry): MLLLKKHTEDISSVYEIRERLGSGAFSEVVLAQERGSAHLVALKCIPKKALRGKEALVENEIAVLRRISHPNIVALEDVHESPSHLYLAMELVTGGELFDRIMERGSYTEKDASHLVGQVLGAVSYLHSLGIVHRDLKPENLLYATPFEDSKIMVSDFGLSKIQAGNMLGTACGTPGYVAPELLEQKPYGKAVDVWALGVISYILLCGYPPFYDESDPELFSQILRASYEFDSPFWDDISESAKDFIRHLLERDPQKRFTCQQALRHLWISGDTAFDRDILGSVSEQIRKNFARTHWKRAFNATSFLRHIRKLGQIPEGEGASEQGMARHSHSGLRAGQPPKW
T19 sequence (O00750 whole entry): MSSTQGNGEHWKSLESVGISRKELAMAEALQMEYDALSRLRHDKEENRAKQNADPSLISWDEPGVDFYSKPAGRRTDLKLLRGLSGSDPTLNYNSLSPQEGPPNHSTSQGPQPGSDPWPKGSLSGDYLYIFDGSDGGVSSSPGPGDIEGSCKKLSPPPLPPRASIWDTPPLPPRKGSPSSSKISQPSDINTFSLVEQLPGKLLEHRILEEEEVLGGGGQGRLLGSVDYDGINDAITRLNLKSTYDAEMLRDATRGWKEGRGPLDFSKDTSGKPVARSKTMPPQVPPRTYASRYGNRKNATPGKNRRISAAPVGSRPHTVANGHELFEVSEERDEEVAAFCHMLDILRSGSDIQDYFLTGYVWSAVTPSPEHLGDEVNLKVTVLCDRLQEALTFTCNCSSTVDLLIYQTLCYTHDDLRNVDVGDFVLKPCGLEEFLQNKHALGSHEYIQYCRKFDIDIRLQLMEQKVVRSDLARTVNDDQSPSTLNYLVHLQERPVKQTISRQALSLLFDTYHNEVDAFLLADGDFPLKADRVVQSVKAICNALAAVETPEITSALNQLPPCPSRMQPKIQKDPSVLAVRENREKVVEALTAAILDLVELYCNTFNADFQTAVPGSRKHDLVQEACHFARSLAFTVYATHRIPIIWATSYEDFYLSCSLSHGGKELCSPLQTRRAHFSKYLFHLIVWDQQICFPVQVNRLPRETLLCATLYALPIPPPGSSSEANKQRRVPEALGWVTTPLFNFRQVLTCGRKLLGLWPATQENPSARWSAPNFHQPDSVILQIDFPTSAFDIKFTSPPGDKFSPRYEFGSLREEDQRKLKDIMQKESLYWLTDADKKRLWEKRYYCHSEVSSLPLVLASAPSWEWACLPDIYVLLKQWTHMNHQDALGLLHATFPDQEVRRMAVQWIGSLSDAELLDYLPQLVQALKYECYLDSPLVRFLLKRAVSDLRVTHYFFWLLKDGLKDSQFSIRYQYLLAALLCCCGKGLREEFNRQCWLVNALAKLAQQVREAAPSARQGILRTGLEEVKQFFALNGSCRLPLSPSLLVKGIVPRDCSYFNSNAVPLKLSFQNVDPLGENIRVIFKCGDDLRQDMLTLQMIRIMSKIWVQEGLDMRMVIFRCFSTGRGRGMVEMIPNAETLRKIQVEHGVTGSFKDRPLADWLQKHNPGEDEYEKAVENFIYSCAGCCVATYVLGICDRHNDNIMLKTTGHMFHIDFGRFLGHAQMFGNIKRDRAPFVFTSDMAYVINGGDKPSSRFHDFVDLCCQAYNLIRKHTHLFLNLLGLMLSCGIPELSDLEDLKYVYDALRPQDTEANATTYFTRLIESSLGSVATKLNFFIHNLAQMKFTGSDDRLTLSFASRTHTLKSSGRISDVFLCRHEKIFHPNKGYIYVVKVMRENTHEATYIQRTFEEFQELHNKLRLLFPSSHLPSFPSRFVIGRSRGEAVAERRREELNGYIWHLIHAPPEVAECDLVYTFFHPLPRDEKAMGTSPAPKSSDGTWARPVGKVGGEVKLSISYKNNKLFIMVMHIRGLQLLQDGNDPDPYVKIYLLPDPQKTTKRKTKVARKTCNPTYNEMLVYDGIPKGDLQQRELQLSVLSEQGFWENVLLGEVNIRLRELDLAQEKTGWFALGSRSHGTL

In the case of `Cc1cccc(-c2cnc3occ(-c4ccc(C(=O)O)c(C5CCCC5)c4)c3c2)c1` [SGC-CAMKK2-1 (YL-36)], the remaining binding at 1 µM on EPHB1 came out at 100%; at ERK8 it was 100%; at STK39 it was 64%; at NEK9 it was 100%; on MRCKB it was 82%; at PIK3CA(M1043I), 100%. Also, the remaining binding at 1 µM in assay [1] was 96%; on DYRK2, 69%; at FLT3(D835Y), 89%; on CTK it was 100%; on PRKX it was 79%; at PHKG1, 80%. For the same molecule, the remaining binding at 1 µM on ROS1 was 84%; at SNRK, 94%; at CAMK2B, 86%; in assay [2], 100%; at EGFR(L858R) it was 77%; at RIPK1, 93%.

`O=C(O)c1ccc(-c2coc3ncc(-c4ccccc4)cc23)cc1Cl` [SGC-CAMKK2-1N (UNC-YL-83)]: the remaining binding at 1 µM came out at 91% at PIK3C2B; 81% on LZK; 83% at MAP3K2; 77% on MAP4K2; 100% on MARK4; 93% at CLK4. The remaining binding at 1 µM on YES amounted to 87%; at CAMK1B, 61%; on PIM1, 75%; in assay [3] it was 99%; in assay [4], 82%; at EGFR(G719C), 100%. The remaining binding at 1 µM at ASK2 is 56%; on DMPK2 it was 100%.
